Test results reported in publication PMC9898036, “VIP152 is a selective CDK9 inhibitor with pre-clinical in vitro and in vivo efficacy in chronic lymphocytic leukemia” (Leukemia, 2022).

What was measured:
[1] = molecular target: CDK9 in complex with Cyclin T1 (Homo sapiens, UniProt P50750); assay: NanoBRET target engagement assay (HEK293); format: cell-based
[2] = system: TP53 R175H and R248Q mutated HG-3 cell lines; assay: Annexin V/propidium iodide flow cytometry; format: cell-based, human; conditions: 24, 48, and 72 h
[3] = system: primary CLL samples with human stromal cell line (HS-5) co-culture; assay: Annexin V/PI flow cytometry, four-hour treatment with washout, HS-5 stromal co-culture; format: cell-based; conditions: relapse/refractory samples; four-hour exposure, after 24 h
[4] = molecular target: Adrenergic α1B (Rattus norvegicus, UniProt P15823); assay: Eurofins Diversity Panel; format: binding; conditions: Conc. 10 μM
[5] = molecular target: Adrenergic α1D (Homo sapiens, UniProt P25100); assay: Eurofins Diversity Panel; format: binding; conditions: hum, Conc. 10 μM
[6] = system: GABAA, Flunitrazepam, Central; assay: Eurofins Diversity Panel; format: binding; conditions: rat, Conc. 10 μM
[7] = molecular target: GABAB1A (Homo sapiens, UniProt Q9UBS5); assay: Eurofins Diversity Panel; format: binding; conditions: hum, Conc. 10 μM
[8] = molecular target: Interleukin IL-1 (Mus musculus, UniProt P13504); assay: Eurofins Diversity Panel; format: binding; conditions: Conc. 10 μM
[9] = molecular target: Muscarinic M3 (Homo sapiens, UniProt P20309); assay: Eurofins Diversity Panel; format: binding; conditions: hum, Conc. 10 μM
[10] = molecular target: hERG potassium channel (Homo sapiens, UniProt Q12809); assay: Eurofins Diversity Panel; format: binding; conditions: hum, Conc. 10 μM
[11] = system: Purinergic P2Y; assay: Eurofins Diversity Panel; format: binding; conditions: rat, Conc. 10 μM
[12] = molecular target: Serotonin (5-Hydroxytryptamine) 5-HT2B) (Homo sapiens, UniProt P41595); assay: Eurofins Diversity Panel; format: binding; conditions: hum, Conc. 10 μM
[13] = molecular target: PKNB(M.tuberculosis) (Mycobacterium tuberculosis, UniProt P9WI81); assay: DiscoverX KINOMEscan kinase profiling; format: binding; conditions: kinase PKNB(M.tuberculosis) (Entrez pknB); compound concentration 1000 nM; read-out: Percent Control
[14] = molecular target: RIOK2 (Homo sapiens, UniProt Q9BVS4); assay: KINOMEscan: RIOK2; format: binding; conditions: 100 nM, read-out: Percent Control
[15] = molecular target: SLK (Homo sapiens, UniProt Q9H2G2); assay: KINOMEscan: SLK; format: binding; conditions: 100 nM, read-out: Percent Control
[16] = molecular target: TGFBR1 (Homo sapiens, UniProt P36897); assay: KINOMEscan: TGFBR1; format: binding; conditions: 100 nM, read-out: Percent Control
[17] = molecular target: TNNI3K (Homo sapiens, UniProt Q59H18); assay: KINOMEscan: TNNI3K; format: binding; conditions: 100 nM, read-out: Percent Control
[18] = molecular target: WNK4 (Homo sapiens, UniProt Q96J92); assay: KINOMEscan: WNK4; format: binding; conditions: 100 nM, read-out: Percent Control
[19] = molecular target: ABL2 (Homo sapiens, UniProt P42684); assay: KINOMEscan: ABL2; format: binding; conditions: 1000 nM, read-out: Percent Control
[20] = molecular target: AURKC (Homo sapiens, UniProt Q9UQB9); assay: KINOMEscan: AURKC; format: binding; conditions: 1000 nM, read-out: Percent Control
[21] = molecular target: CAMK4 (Homo sapiens, UniProt Q16566); assay: KINOMEscan: CAMK4; format: binding; conditions: 1000 nM, read-out: Percent Control
[22] = molecular target: CDK3 (Homo sapiens, UniProt Q00526); assay: KINOMEscan: CDK3; format: binding; conditions: 1000 nM, read-out: Percent Control
[23] = molecular target: CSF1R (Homo sapiens, UniProt P07333); assay: KINOMEscan: CSF1R; format: binding; conditions: 1000 nM, read-out: Percent Control
[24] = molecular target: DRAK1 (Homo sapiens, UniProt Q9UEE5); assay: KINOMEscan: DRAK1; format: binding; conditions: 1000 nM, read-out: Percent Control
[25] = molecular target: DYRK1A (Homo sapiens, UniProt Q13627); assay: KINOMEscan: DYRK1A; format: binding; conditions: 1000 nM, read-out: Percent Control
[26] = molecular target: FLT3(K663Q) (Homo sapiens, UniProt P36888, K663Q); assay: KINOMEscan: FLT3(K663Q); format: binding; conditions: 1000 nM, read-out: Percent Control
[27] = molecular target: FYN (Homo sapiens, UniProt P06241); assay: KINOMEscan: FYN; format: binding; conditions: 1000 nM, read-out: Percent Control
[28] = molecular target: HCK (Homo sapiens, UniProt P08631); assay: KINOMEscan: HCK; format: binding; conditions: 1000 nM, read-out: Percent Control
[29] = molecular target: KIT(V559D,V654A) (Homo sapiens, UniProt P10721, V559D/V654A); assay: KINOMEscan: KIT(V559D,V654A); format: binding; conditions: 1000 nM, read-out: Percent Control
[30] = molecular target: LIMK1 (Homo sapiens, UniProt P53667); assay: KINOMEscan: LIMK1; format: binding; conditions: 1000 nM, read-out: Percent Control
[31] = molecular target: MELK (Homo sapiens, UniProt Q14680); assay: KINOMEscan: MELK; format: binding; conditions: 1000 nM, read-out: Percent Control
[32] = molecular target: MERTK (Homo sapiens, UniProt Q12866); assay: KINOMEscan: MERTK; format: binding; conditions: 1000 nM, read-out: Percent Control
[33] = molecular target: MST1R (Homo sapiens, UniProt Q04912); assay: KINOMEscan: MST1R; format: binding; conditions: 1000 nM, read-out: Percent Control

Chain of SLK (Q9H2G2 whole entry): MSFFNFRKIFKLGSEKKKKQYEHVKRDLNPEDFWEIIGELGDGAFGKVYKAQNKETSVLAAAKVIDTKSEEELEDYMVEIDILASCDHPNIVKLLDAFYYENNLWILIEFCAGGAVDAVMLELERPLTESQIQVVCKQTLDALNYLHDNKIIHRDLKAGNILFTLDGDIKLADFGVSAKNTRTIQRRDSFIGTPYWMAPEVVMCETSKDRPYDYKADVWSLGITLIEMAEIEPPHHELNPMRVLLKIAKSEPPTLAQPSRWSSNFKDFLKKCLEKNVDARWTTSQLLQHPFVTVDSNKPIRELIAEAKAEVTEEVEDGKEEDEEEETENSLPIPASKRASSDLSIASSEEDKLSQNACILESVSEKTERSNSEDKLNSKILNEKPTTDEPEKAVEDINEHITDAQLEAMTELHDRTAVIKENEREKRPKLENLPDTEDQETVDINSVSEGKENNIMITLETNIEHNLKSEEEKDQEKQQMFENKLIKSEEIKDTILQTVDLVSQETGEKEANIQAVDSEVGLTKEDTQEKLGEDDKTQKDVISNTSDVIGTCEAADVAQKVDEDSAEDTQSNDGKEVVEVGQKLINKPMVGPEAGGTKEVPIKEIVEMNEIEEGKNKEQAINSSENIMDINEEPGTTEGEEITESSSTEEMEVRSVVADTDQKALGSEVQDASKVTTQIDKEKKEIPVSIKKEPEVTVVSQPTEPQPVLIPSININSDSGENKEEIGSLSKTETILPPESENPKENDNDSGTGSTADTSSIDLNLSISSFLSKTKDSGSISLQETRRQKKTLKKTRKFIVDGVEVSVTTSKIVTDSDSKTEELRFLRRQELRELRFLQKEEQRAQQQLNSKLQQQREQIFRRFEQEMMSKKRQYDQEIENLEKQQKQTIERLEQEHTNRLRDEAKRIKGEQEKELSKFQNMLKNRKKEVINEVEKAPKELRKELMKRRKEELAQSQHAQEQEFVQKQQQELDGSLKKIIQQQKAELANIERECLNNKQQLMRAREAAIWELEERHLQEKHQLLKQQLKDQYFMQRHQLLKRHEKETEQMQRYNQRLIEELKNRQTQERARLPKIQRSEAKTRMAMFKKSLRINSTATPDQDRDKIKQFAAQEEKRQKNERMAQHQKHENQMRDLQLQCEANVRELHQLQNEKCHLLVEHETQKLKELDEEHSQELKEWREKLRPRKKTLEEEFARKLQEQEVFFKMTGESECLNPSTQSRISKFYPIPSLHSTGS
Chain of CDK9 in complex with Cyclin T1 (P50750 whole entry): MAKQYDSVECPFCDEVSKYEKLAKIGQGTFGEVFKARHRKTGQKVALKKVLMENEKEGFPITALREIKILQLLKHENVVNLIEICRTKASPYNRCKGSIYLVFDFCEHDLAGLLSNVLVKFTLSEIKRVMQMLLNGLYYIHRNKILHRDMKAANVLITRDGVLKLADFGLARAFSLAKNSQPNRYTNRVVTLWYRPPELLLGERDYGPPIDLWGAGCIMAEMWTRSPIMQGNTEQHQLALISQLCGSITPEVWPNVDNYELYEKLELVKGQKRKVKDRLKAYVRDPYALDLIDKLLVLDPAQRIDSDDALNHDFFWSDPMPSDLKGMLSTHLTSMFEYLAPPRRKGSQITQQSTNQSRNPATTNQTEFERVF
Chain of CDK9 in complex with Cyclin T1 (O60563 whole entry partner): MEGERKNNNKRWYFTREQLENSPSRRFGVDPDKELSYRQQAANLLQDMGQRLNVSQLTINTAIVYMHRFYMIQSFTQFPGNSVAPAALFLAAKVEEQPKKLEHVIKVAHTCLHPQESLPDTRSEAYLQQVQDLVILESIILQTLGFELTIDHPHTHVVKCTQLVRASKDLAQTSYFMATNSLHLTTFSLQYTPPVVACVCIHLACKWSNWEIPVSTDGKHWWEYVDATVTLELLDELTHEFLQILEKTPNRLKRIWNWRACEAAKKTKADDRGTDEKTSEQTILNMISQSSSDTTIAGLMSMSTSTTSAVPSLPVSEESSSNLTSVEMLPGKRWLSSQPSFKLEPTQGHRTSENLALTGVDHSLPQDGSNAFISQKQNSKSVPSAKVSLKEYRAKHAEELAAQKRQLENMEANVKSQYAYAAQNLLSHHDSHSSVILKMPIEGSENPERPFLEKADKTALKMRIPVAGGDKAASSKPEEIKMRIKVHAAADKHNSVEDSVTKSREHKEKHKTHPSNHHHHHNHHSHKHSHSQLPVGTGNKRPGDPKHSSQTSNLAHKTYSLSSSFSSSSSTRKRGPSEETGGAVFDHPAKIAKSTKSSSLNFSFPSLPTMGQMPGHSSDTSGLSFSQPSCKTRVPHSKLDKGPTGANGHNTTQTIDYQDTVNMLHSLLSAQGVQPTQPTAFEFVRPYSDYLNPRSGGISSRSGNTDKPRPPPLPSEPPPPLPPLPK
Chain of ABL2 (P42684 whole entry): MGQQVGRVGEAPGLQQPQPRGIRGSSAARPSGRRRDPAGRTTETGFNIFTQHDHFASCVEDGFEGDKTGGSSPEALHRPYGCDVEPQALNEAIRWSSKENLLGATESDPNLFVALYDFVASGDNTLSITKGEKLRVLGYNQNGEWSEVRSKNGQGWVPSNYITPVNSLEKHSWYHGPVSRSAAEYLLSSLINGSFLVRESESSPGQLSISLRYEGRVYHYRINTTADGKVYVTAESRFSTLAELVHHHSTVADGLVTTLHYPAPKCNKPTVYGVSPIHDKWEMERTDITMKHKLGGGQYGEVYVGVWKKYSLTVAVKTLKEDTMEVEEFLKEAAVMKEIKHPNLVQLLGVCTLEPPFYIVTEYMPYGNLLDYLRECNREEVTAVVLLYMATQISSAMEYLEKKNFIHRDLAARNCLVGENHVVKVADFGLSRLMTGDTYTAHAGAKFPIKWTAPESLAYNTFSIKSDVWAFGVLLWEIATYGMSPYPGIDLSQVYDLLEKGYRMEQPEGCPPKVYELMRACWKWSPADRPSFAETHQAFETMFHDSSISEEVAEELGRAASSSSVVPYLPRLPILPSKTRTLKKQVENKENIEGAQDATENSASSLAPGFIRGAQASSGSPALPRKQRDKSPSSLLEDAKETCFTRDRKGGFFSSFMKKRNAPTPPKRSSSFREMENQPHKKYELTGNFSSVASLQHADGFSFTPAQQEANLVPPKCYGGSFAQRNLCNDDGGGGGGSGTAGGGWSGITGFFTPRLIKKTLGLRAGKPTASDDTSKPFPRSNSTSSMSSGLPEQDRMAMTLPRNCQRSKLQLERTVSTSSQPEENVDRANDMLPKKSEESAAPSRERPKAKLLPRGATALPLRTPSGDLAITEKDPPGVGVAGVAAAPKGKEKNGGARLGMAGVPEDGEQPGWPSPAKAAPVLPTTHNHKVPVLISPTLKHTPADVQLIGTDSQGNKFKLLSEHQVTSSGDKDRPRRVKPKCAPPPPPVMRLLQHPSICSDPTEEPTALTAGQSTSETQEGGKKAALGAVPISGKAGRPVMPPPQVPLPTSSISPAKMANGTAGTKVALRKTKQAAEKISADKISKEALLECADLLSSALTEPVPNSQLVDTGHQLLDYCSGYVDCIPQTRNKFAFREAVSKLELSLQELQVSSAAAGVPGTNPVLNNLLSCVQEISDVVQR
Chain of Muscarinic M3 (P20309 whole entry): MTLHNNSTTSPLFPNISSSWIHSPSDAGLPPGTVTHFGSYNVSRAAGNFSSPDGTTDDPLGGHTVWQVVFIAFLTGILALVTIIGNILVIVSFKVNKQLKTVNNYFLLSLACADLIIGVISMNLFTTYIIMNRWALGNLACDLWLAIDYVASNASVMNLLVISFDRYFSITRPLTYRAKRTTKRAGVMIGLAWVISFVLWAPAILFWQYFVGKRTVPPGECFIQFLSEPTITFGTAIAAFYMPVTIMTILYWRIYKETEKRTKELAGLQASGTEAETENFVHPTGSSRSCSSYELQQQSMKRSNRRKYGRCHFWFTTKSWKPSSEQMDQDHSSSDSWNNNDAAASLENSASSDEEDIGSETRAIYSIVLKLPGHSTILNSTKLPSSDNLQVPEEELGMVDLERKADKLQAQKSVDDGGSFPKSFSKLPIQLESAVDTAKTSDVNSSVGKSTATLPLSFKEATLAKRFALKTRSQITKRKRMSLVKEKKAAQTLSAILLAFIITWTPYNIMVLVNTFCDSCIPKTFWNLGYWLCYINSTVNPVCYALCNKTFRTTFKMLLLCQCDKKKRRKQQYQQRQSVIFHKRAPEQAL
Chain of MERTK (Q12866 21-999): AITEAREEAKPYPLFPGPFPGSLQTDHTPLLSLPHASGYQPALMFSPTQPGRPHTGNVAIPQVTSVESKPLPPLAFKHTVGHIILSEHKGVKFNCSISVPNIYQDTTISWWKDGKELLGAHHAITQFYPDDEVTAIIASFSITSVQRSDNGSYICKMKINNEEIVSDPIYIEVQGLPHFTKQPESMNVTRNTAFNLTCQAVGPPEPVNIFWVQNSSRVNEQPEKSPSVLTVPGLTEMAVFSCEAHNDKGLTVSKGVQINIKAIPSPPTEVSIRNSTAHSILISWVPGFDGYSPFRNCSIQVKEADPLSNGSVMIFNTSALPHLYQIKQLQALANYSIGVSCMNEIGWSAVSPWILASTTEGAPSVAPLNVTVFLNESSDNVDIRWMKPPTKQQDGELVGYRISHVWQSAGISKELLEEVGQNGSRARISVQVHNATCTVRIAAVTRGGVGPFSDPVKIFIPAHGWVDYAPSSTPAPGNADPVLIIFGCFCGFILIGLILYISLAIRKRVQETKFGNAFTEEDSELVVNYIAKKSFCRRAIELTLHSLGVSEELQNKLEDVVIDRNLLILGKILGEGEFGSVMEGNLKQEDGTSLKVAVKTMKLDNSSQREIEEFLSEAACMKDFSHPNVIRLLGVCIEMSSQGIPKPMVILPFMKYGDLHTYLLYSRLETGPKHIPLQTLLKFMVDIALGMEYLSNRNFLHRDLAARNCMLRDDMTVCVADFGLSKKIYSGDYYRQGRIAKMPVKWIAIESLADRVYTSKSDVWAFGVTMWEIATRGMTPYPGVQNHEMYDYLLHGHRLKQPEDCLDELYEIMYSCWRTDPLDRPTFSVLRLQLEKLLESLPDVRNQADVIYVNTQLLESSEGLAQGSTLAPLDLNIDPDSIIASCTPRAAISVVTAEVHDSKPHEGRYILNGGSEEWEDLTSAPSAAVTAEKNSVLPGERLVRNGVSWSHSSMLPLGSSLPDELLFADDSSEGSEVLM

Structure (SMILES): COc1cc(F)ccc1-c1cc(Nc2cc(CS(C)(=N)=O)ccn2)ncc1F (stereo not drawn) [VIP152]
- potency versus the other inhibitors [1]: higher potency
- cytotoxicity [2]: significant levels of cytotoxicity
- apoptosis and stromal protection [3]: induce significant apoptosis after 24 h and overcome stromal protection
- inhibition at 10 µM [4]: 18%
- inhibition at 10 µM [5]: 19%
- % Inh. [6]: 6%
- inhibition at 10 µM [7]: 1%
- inhibition at 10 µM [8]: -5%
- inhibition at 10 µM [9]: 3%
- inhibition at 10 µM [10]: 26%
- % Inh. [11]: 8%
- inhibition at 10 µM [12]: 56%
- remaining binding at 1 µM [13]: 100%
- remaining binding at 0.1 µM [14]: 100%
- remaining binding at 0.1 µM [15]: 91%
- remaining binding at 0.1 µM [16]: 100%
- remaining binding at 0.1 µM [17]: 100%
- remaining binding at 0.1 µM [18]: 100%
- remaining binding at 1 µM [19]: 65%
- remaining binding at 1 µM [20]: 38%
- remaining binding at 1 µM [21]: 100%
- remaining binding at 1 µM [22]: 37%
- remaining binding at 1 µM [23]: 70%
- remaining binding at 1 µM [24]: 71%
- remaining binding at 1 µM [25]: 12%
- remaining binding at 1 µM [26]: 80%
- remaining binding at 1 µM [27]: 91%
- remaining binding at 1 µM [28]: 82%
- remaining binding at 1 µM [29]: 100%
- remaining binding at 1 µM [30]: 92%
- remaining binding at 1 µM [31]: 96%
- remaining binding at 1 µM [32]: 58%
- remaining binding at 1 µM [33]: 70%
